Measured values from patent publication US20230077362A1 (CORTEVA AGRISCIENCE LLC, priority 2019, published 2023).
Like-named read-outs stand apart in the source and are kept apart here.

How the values were obtained:
[1] = test system: Cabbage Looper (Trichoplusia ni) ("CL"), second instar larvae; assay: Bioassay on cabbage looper (CL), 128-well diet tray assay; format: in vivo; conditions: for pest or weed control at 50 µg/cm2: Trichoplusia ni; for CL rating: Table ABC, species CL, C = not tested, D = no activity noticed
Procedure: (§1) Certain molecules disclosed in this document were tested against BAW and CL using procedures described in the following examples. In the reporting of the results, the “BAW & CL Rating Table” was used (See Table Section).
(§2) Trays were covered with a clear self-adhesive cover and held at 25° C., 14:10 light-dark cycle for five to seven days. Percent mortality was recorded for the larvae in each well; activity in the eight wells was then averaged. The results are indicated in the table entitled “Table ABC: Biological Results” (See Table Section).

[2] = test system: Beet Armyworm (Spodoptera exigua) ("BAW"), second instar larvae; assay: Bioassay on beet armyworm (BAW), 128-well diet tray assay; format: in vivo; conditions: for pest or weed control at 50 µg/cm2: Spodoptera exigua; for BAW rating: Table ABC, species BAW, C = not tested, D = no activity noticed
Procedure: as §1, §2

[3] = read-out: CL (Biological Results, rating)
[4] = read-out: BAW (Biological Results, rating)

Compound | pest or weed control at 50 µg/cm2 [1, 3] | pest or weed control at 50 µg/cm2 [2, 4] | pest or weed control at 50 µg/cm2 ([1]; read-out: CL rating) | pest or weed control at 50 µg/cm2 ([2]; read-out: BAW rating) | other results
COc1ccc(C(C)C)c(N2C(=O)CS/C2=N\C(=O)Nc2ccc(-c3ncn(-c4ccc(OC(F)(F)C(F)(F)F)cc4)n3)cc2F)c1 [Compound J27, (Z)-1-(2-Fluoro-4-(1-(4-(perfluoroethoxy)phenyl)-1H-1,2,4-triazol-3-yl)phenyl)-3-(3-(2-isopropyl-5-methoxyphenyl)-4-oxothiazolidin-2-ylidene)urea] | 50 to 100% | 50 to 100% |  |  | 
Cc1ccc(C(C)C)c(N2C(=O)CS/C2=N\C(=O)Nc2ccc(-c3cn(-c4ccc(S(=O)(=O)C(F)(F)F)cc4)cn3)cc2F)c1 [Compound J651, (Z)-1-(2-Fluoro-4-(1-(4-((trifluoromethyl)sulfonyl)phenyl)-1H-imidazol-4-yl)phenyl)-3-(3-(2-isopropyl-5-methylphenyl)-4-oxothiazolidin-2-ylidene)urea] |  |  | 50 to 100% | 50 to 100% | 
CC(C)c1ccc(N(C)C)cc1N1C(=O)CS/C1=N\C(=O)Nc1ccc(-c2ncn(-c3ccc(C(F)(F)F)cn3)n2)cc1C(F)(F)F [Compound J302, (Z)-1-(3-(5-(Dimethylamino)-2-isopropylphenyl)-4-oxothiazolidin-2-ylidene)-3-(2-(trifluoromethyl)-4-(1-(5-(trifluoromethyl)pyridin-2-yl)-1H-1,2,4-triazol-3-yl)phenyl)urea] | 50 to 100% | 50 to 100% |  |  | 
Cc1ccc(Cc2ccccc2)c(N2C(=O)CS/C2=N\C(=O)Nc2ccc(-c3ncn(-c4ccc(S(F)(F)(F)(F)F)cc4)n3)cc2F)c1 [Compound J563, (Z)-1-(3-(2-Benzyl-5-methylphenyl)-4-oxothiazolidin-2-ylidene)-3-(2-fluoro-4-(1-(4-(pentafluoro-λ^6-sulfaneyl)phenyl)-1H-1,2,4-triazol-3-yl)phenyl)urea] |  |  | 50 to 100% | 50 to 100% | 
COC(C)c1ccc(C)cc1N1C(=O)CS/C1=N\C(=O)Nc1ccc(-c2ncn(-c3ccc(OC(F)(F)F)cc3)n2)cc1C(C)C (stereo not shown) [Compound J94, (Z)-1-(2-Isopropyl-4-(1-(4-(trifluoromethoxy)phenyl)-1H-1,2,4-triazol-3-yl)phenyl)-3-(3-(2-(1-methoxyethyl)-5-methylphenyl)-4-oxothiazolidin-2-ylidene)urea] | 50 to 100% | 50 to 100% |  |  | 
Cc1ccc(COCC(F)(F)F)c(N2C(=O)C(CO)(CO)S/C2=N\C(=O)Nc2ccc(-c3ncn(-c4ccc(OC(F)(F)F)cc4)n3)cc2F)c1 [Compound J778, (Z)-1-(5,5-Bis(hydroxymethyl)-3-(5-methyl-2-((2,2,2-trifluoroethoxy)methyl)phenyl)-4-oxothiazolidin-2-ylidene)-3-(2-fluoro-4-(1-(4-(trifluoromethoxy)phenyl)-1H-1,2,4-triazol-3-yl)phenyl)urea] |  |  | 50 to 100% | 50 to 100% | 
CCOCc1ccc(C)cc1N1C(=O)CS/C1=N\C(=O)Nc1ccc(-c2ncn(-c3ccc(S(F)(F)(F)(F)F)cc3)n2)cc1C [Compound J548] |  |  |  |  | CL rating [1]: A (50-100); BAW rating [2]: A (50-100)
Cc1cc(-c2ncn(-c3ccc(S(F)(F)(F)(F)F)cc3)n2)ccc1NC(=O)/N=C1\SCC(=O)N1c1cccc(C)c1COCC(F)(F)F [Compound J578] |  |  |  |  | CL rating [1]: A (50-100); BAW rating [2]: A (50-100)
Cc1ccc(Cc2ccccc2)c(N2C(=O)CS/C2=N\C(=O)Nc2ccc(-c3ncn(-c4ccc(OC(F)(F)F)cc4)n3)cc2F)c1 [Compound J457, (Z)-1-(3-(2-Benzyl-5-methylphenyl)-4-oxothiazolidin-2-ylidene)-3-(2-fluoro-4-(1-(4-(trifluoromethoxy)phenyl)-1H-1,2,4-triazol-3-yl)phenyl)urea] |  |  | 50 to 100% | 50 to 100% | 
CC(C)c1ccc(N(C)C)cc1N1C(=O)CS/C1=N\C(=O)Nc1ccc(-c2ccn(-c3ccc(C(F)(F)F)nn3)n2)cc1F [Compound J391] |  |  | 50 to 100% | 50 to 100% | 
Cc1ccc(COCC(F)(F)Cl)c(N2C(=O)CS/C2=N\C(=O)Nc2ccc(-c3ncn(-c4ccc(OC(F)(F)F)cc4)n3)cc2C)c1 [Compound J436] |  |  |  |  | CL rating [1]: A (50-100); BAW rating [2]: A (50-100)
Cc1ccc(COCC(Cl)Cl)c(N2C(=O)CS/C2=N\C(=O)Nc2ccc(-c3ncn(-c4ccc(OC(F)(F)F)cc4)n3)cc2C)c1 [Compound J555] |  |  | 50 to 100% | 50 to 100% | 
Cc1ccc(COCC(F)(F)F)c(N2C(=O)CS/C2=N\C(=O)Nc2ccc(-c3ncn(-c4ccc(OC(F)(F)F)cn4)n3)cc2C)c1 [Compound J241, (Z)-1-(3-(5-Methyl-2-((2,2,2-trifluoroethoxy)methyl)phenyl)-4-oxothiazolidin-2-ylidene)-3-(2-methyl-4-(1-(5-(trifluoromethoxy)pyridin-2-yl)-1H-1,2,4-triazol-3-yl)phenyl)urea] | 50 to 100% | 50 to 100% |  |  | 
COc1ccc(C(C)C)c(N2C(=O)CS/C2=N\C(=O)Nc2ccc(-c3ncn(-c4ccc(OC(F)(F)C(F)(F)F)cc4)n3)cc2OC)c1 [Compound J29, (Z)-1-(3-(2-Isopropyl-5-methoxyphenyl)-4-oxothiazolidin-2-ylidene)-3-(2-methoxy-4-(1-(4-(perfluoroethoxy)phenyl)-1H-1,2,4-triazol-3-yl)phenyl)urea] | 50 to 100% | 50 to 100% |  |  | 
CC(C)c1ccc(N(C)C)cc1N1C(=O)CS/C1=N\C(=O)Nc1ccc(-c2cn(-c3ccc(OC(F)(F)F)cc3)cn2)cc1F [Compound J474, (Z)-1-(3-(5-(Dimethylamino)-2-isopropylphenyl)-4-oxothiazolidin-2-ylidene)-3-(2-fluoro-4-(1-(4-(trifluoromethoxy)phenyl)-1H-imidazol-4-yl)phenyl)urea] |  |  | 50 to 100% | 50 to 100% | 
COC(C)c1ccc(C)cc1N1C(=O)CS/C1=N\C(=O)Nc1ccc(-c2ncn(-c3ccc(OC(F)(F)F)cn3)n2)cc1F (stereo not shown) [Compound J236, (Z)-1-(2-Fluoro-4-(1-(5-(trifluoromethoxy)pyridin-2-yl)-1H-1,2,4-triazol-3-yl)phenyl)-3-(3-(2-(1-methoxyethyl)-5-methylphenyl)-4-oxothiazolidin-2-ylidene)urea] | 50 to 100% | 50 to 100% |  |  | 
Cc1ccc(COCC(F)(F)F)c(N2C(=O)CS/C2=N\C(=O)Nc2ccc(-c3ncn(-c4ccc(C(F)(F)F)nn4)n3)cc2F)c1 [Compound J394] |  |  |  |  | CL rating [1]: A (50-100); BAW rating [2]: A (50-100)
CC(C)c1ccc(C#N)cc1N1C(=O)CS/C1=N\C(=O)Nc1ccc(-c2cn(-c3ccc(S(F)(F)(F)(F)F)cc3)cn2)cc1F [Compound J605, (Z)-1-(3-(5-Cyano-2-isopropylphenyl)-4-oxothiazolidin-2-ylidene)-3-(2-fluoro-4-(1-(4-(pentafluoro-λ^6-sulfaneyl)phenyl)-1H-imidazol-4-yl)phenyl)urea] |  |  | 50 to 100% | 50 to 100% | 
Cc1ccc(C(C)C)c(N2C(=O)CS/C2=N\C(=O)Nc2ccc(-c3ncn(-c4ccc(OC(F)(F)F)cc4)n3)cc2C(F)F)c1 [Compound J211, (Z)-1-(2-(Difluoromethyl)-4-(1-(4-(trifluoromethoxy)phenyl)-1H-1,2,4-triazol-3-yl)phenyl)-3-(3-(2-isopropyl-5-methylphenyl)-4-oxothiazolidin-2-ylidene)urea] | 50 to 100% | 50 to 100% |  |  | 
CC(=O)N(C)c1ccc(C(C)C)c(N2C(=O)CS/C2=N\C(=O)Nc2ccc(-c3ncn(-c4ccc(OC(F)(F)F)cc4)n3)cc2F)c1 [Compound J188, (Z)-N-(3-(2-(((2-Fluoro-4-(1-(4-(trifluoromethoxy)phenyl)-1H-1,2,4-triazol-3-yl)phenyl)carbamoyl)imino)-4-oxothiazolidin-3-yl)-4-isopropylphenyl)-N-methylacetamide] | 50 to 100% | 50 to 100% |  |  | 
Cc1ccc(OCCC(F)(F)F)c(N2C(=O)CS/C2=N\C(=O)Nc2ccc(-c3ncn(-c4ccc(SC(F)(F)F)cc4)n3)cc2F)c1 [Compound J333, (Z)-1-(2-Fluoro-4-(1-(4-((trifluoromethyl)thio)phenyl)-1H-1,2,4-triazol-3-yl)phenyl)-3-(3-(5-methyl-2-(3,3,3-trifluoropropoxy)phenyl)-4-oxothiazolidin-2-ylidene)urea] | 50 to 100% | 50 to 100% |  |  | 
COCc1ccc(C)cc1N1C(=O)CS/C1=N\C(=O)Nc1ccc(-c2nnc(-c3ccc(OC(F)(F)F)cc3)o2)cc1F [Compound J609, (Z)-1-(2-Fluoro-4-(5-(4-(trifluoromethoxy)phenyl)-1,3,4-oxadiazol-2-yl)phenyl)-3-(3-(2-(methoxymethyl)-5-methylphenyl)-4-oxothiazolidin-2-ylidene)urea] |  |  | 50 to 100% | 50 to 100% | 
Cc1ccc(COCC(F)(F)F)c(N2C(=O)CS/C2=N\C(=O)Nc2ccc(-n3cnc(-c4ccc(OC(F)(F)F)cc4)n3)cc2)c1 [Compound J403, (Z)-1-(3-(5-Methyl-2-((2,2,2-trifluoroethoxy)methyl)phenyl)-4-oxothiazolidin-2-ylidene)-3-(4-(3-(4-(trifluoromethoxy)phenyl)-1H-1,2,4-triazol-1-yl)phenyl)urea] |  |  | 50 to 100% | 50 to 100% | 
